In patent publication US7501275B2, “Yeast transformation system” (The United States of America as represented by the …, priority 2004, dated 2009):

System: Pichia stipitis UC7 NRRL Y-21448
Assay: Testing for sensitivity to Zeocin: plating on YPD pH 7.5 with Zeocin
Format: cell-based
Details: plated on YPD pH 7.5; Zeocin tested from 25 μg/ml to 500 μg/ml
Protocol: Pichia stipitis UC7 NRRL Y-21448 (2) is a ura3 auxotrophic mutant of P. stipitis CBS 6054 (ARS Culture Collection, NRRL USDA Peoria, Ill.). To test if Pichia stipitis UC7 is sensitive to Zeocin, UC7 was plated on YPD (Kaiser, Michaelis and Mitchell, 1994) pH 7.5 (1% yeast extract, 2% peptone, 2% dextrose, NaOH to pH 7.5) in the presence of Zeocin (Invitrogen) at a concentration of from 25 μg/ml to 500 μg/ml. Zeocin concentrations of 100 μg/ml or greater killed Pichia stipitis UC7.

Cc1c(N)nc([C@H](CC(N)=O)NC[C@H](N)C(N)=O)nc1C(=O)N[C@H](C(=O)N[C@H](C)[C@@H](O)[C@H](C)C(=O)N[C@H](C(=O)NCCC1=N[C@@H](c2nc(C(=O)NCCCCN=C(N)N)cs2)CS1)[C@@H](C)O)[C@@H](O[C@@H]1O[C@@H](CO)[C@@H](O)[C@H](O)[C@@H]1O[C@H]1O[C@H](CO)[C@@H](O)[C@H](OC(N)=O)[C@@H]1O)c1cnc[nH]1 [Zeocin]
Zeocin concentrations that killed Pichia stipitis UC7: ≥ 100 µg/mL
